Results reported in US5741671A, “Isolation cloning and expression of transmembrane water channel aquaporin 1(AQP1)” (The Johns Hopkins University, priority 1995, dated 1998).

What was measured:
[1] = biological target: T1, AQP1 (Homo sapiens, UniProt P29972); assay: Stopped-flow osmotic water permeability of AQP1 proteoliposomes; type: biochemical; conditions: CHIP28 proteoliposomes
T1 construct: Human erythrocytes were obtained from blood-bank units stored up to 5 weeks; from tissue; host or cells: human erythrocytes (blood-bank units; small-scale preparations from freshly drawn whole blood)
T1 sequence (P29972 2-269 limits assumed): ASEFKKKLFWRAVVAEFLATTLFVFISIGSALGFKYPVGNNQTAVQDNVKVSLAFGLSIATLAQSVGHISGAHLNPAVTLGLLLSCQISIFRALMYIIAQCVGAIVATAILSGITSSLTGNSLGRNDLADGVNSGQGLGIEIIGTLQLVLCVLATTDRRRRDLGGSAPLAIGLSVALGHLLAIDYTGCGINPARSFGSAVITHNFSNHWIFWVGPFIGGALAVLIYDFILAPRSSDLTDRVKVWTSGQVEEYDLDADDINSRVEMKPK
Description: Preparation AQP1-containing proteoliposomes. Crude Escherichia coli lipid was obtained from Avanti Polar Lipids, Inc., and neutral lipid was removed by acetone/ether wash (Ambudkar & Maloney, 1986, Methods. Enzymol. 125:558-563). The purified E. coli bulk phospholipid is composed of phosphalidylethanolamine (70%), phosphatidylglycerol (15%), and cardiolipin (15%) (Chen & Wilson, […], Proc. Natl. Acad. Sci. USA 83:2652-2656). E. coli bulk phospholipid was employed since it has previously been used for functional reconstitution of several transport proteins including the glucose transporter of RBCs (Maloney & Ambudkar, 1989, Arch. Biochem. Biophys. 269:1-10; Chen et al., 1986, Proc. Natl. Acad. Sci. USA 83:2652-2656).
Highly purified AQP1 protein was incorporated into proteoliposomes by detergent dilution; control liposomes were formed in an identical manner without AQP1 protein.
Purified AQP1 was stored overnight at 0° C. or frozen for several days at -80° C. prior to reconstitution. Reconstitution into proteoliposomes was carried out in a final volume of 1 ml containing 60-90 μg of purified AQP1 protein in chromatography buffer, 9 mg of bath-sonicated E. coli phospholipid, 1.25% (w/v) octyl glucoside, and 50 mM Tris-HCl (pH 7.5). The mixture was briefly blended on a vortex mixer and incubated for 20 minutes on ice. Proteoliposomes (or liposomes prepared without protein) were formed at room temperature by rapidly injecting the mixture into 25 ml of buffer A [50 mM MOPS, pH 7.5, 150 mM N-methyl-D-glucamine (NMDG) chloride also containing 10-15 mM carboxyfluorescein, 1 mM dithiothreitol, and 0.5 mM PMSF]. For the measurement of proton permeability, proteoliposomes and liposomes were loaded with buffer B (5 mM MOPS, pH 7.5, 150 mM KCl, 0.5 mM carboxyfluorescein, 1 mM dithiothreitol, and 0.5 mM PMSF). The suspension was incubated for 20 minutes at room temperature. Proteoliposomes or liposomes were collected by centrifugation for 1 hour at 123000×g in a Beckman Type 42.1 rotor at 4° C. The pellet was resuspended in 8 ml of buffer A or B and then centrifuged for 1 hour at 152000×g in a Beckman Type 50 Ti rotor. Proteoliposomes or liposomes were resuspended in 300 μl of buffer A or B and stored at 4° C. for 16-24 hours. Typically 50% (54±6%, n=5) of the AQP1 protein and 70% of the phospholipid were recovered in proteoliposomes. The lipid to protein ratio was in the range of 120:1 to 219:1. […] Protein and phospholipid were measured as described by Ambudkar & Maloney (J. Biol. Chem., 1986, 261:10079-10086).
(§1) Permeability measurements. Membrane permeability measurements (Pf) were measured by exposing AQP1 proteoliposomes or control liposomes to an osmotic gradient by rapid mixing with an equal volume of another solution containing buffer A plus sufficient sucrose to increase osmolality in the mixed solutions to a value 120% of that in the original solution. This was performed with a stopped-flow fluorometer (SF.17MV, Applied Photophysics, Leatherhead, U.K.) with a measured dead time of 0.7 ms. […] Extravesicular carboxyfluorescein fluorescence was completely quenched using anti-fluorescein antibody (Harris et al., 1990, Am. J. Physiol. 259:F366-F371). Within the range of osmolalities used in these experiments, the vesicles acted as perfect osmometers, and relative volume (absolute volume divided by initial volume) was linearly related to relative fluorescence (absolute fluorescence divided by initial fluorescence). […]

[2] = Stopped-flow osmotic water permeability of control liposomes; type: biochemical; conditions: mercurial reagent 1 mM
Protocol: Purified AQP1 was stored overnight at 0° C. or frozen for several days at -80° C. prior to reconstitution. Reconstitution into proteoliposomes was carried out in a final volume of 1 ml containing 60-90 μg of purified AQP1 protein in chromatography buffer, 9 mg of bath-sonicated E. coli phospholipid, 1.25% (w/v) octyl glucoside, and 50 mM Tris-HCl (pH 7.5). The mixture was briefly blended on a vortex mixer and incubated for 20 minutes on ice. […] Protein and phospholipid were measured as described by Ambudkar & Maloney (J. Biol. Chem., 1986, 261:10079-10086).
as §1, with “259:F366-F371).” for “259:F366-F371). Within the range of osmolalities used in these experiments, the vesicles acted as perfect osmometers, and relative volume (absolute volume divided by initial volume) was linearly related to relative fluorescence (absolute fluorescence divided by initial fluorescence).”

[3] = tested on: human RBC; conditions: cited from earlier work
[4] = biological target: T2, CHIP28 water channel (Homo sapiens, UniProt P29972); assay: Urea permeability of CHIP28 proteoliposomes; type: biochemical; conditions: internal urea 374 mM, external urea 187 mM
T2 construct: Human erythrocytes were obtained from blood-bank units stored up to 5 weeks; from tissue; host or cells: human erythrocytes (blood-bank units; small-scale preparations from freshly drawn whole blood)
T2 sequence (P29972 2-269 limits assumed): T1 sequence (P29972 2-269 limits assumed)
Description: The general formula defining solute exit from a vesicle is
Jurea =d(urea)/dt=Purea (SA)ΔC (2)
where Jurea is urea flux, Purea is the permeability coefficient for urea, SA is the surface area of the vesicle, and ΔC is the difference in urea concentration between the inside and outside of the vesicle, which diminishes as the system reaches equilibrium. If
Using parameters from the single-exponential curve fit to the data and the relationship between relative volume and relative fluorescence, equation 4 was solved for Purea using MathCAD.
Exclusion of urea. To determine the selectivity of the CHIP28 water channel, CHIP28-containing liposomes were loaded with urea at a level similar to the measured Km for urea transport in RBCs and were abruptly mixed with solutions of identical osmolality containing half the urea concentration. Urea permeability was determined by monitoring the relative fluorescence of entrapped carboxyfluorescein during the urea efflux. Solutions inside and outside the vesicle were of equal osmolality but differed in the concentrations of permeant and impermeant solutes (Grossman et al., 1992, Am. J. Physiol., in press). Thus, internal urea concentration was 374 mM and external urea concentration was 187 mM with the remaining osmolality balanced by 187 mM sucrose. […]

With O=S(=O)([O-])c1cc[c]([Hg][Cl])cc1 [pCMBS, p-chloromercuribenzene sulfonate] the “Pf after mercurial treatment” value ([1]; 1 mM pCMBS, 25 minutes at 37° C.) was 0.009±0.005 cm/s, the “extent of inhibition of Pf at 5 and 10 minutes” value ([1]; 1 mM, 37° C.) was “partial” and the “effect on the Pf of control liposomes” value [2] was “Neither pCMBS nor HgCl2 had any effect”.

In the case of O=C(CCc1ccc(O)cc1)c1c(O)cc(O)cc1O [Phloretin], the “effect on urea flux” value [3] is given as “inhibits urea flux” and the “effect on water flux” value [3] is given as “without altering water flux”.

B1: AQP1: Mr 28,000 transmembrane water channel protein of human erythrocytes, 269 amino acids (protein)
chain: T1 sequence (P29972 2-269 limits assumed)
With B1 the “urea permeability versus control liposomes” value [4] was “did not augment urea permeability”.
